Test results taken from BindingDB's records for doi:10.7270/Q2NZ862K (Nmmlsc, 2007).

target: T1, fMet-Leu-Phe receptor (Homo sapiens, UniProt P21462); experiment: FPR ligands, dose response (AID 519)
T1 sequence (P21462 whole entry): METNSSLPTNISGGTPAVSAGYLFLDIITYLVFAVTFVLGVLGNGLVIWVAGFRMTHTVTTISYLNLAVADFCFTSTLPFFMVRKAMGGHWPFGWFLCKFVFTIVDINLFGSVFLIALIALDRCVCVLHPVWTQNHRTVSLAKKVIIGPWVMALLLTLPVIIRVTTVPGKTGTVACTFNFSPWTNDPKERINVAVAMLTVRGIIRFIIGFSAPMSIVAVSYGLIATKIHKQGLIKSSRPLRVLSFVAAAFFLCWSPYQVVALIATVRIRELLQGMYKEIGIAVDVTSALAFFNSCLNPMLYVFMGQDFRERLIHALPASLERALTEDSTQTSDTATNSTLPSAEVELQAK

Row | Ki | SMILES
1 | > 43.7 µM | Cc1ccc(C2C(C(=O)c3sc(C)nc3C)C(=O)C(=O)N2CCN2CCOCC2)o1 (stereo unspecified) [3-(2,4-dimethyl-1,3-thiazole-5-carbonyl)-4-hydroxy-2-(5-methylfuran-2-yl)-1-(2-morpholin-4-ylethyl)-2H-pyrrol-5-one]
2 | 27.9 µM | CCCOc1ccc(C2C(C(=O)c3ccc(C)o3)C(=O)C(=O)N2Cc2cccnc2)cc1 (stereo unspecified) [3-(5-methylfuran-2-yl)carbonyl-4-oxidanyl-2-(4-propoxyphenyl)-1-(pyridin-3-ylmethyl)-2H-pyrrol-5-one]
3 | 36.7 µM | COCCN1C(=O)C(=O)C(C(=O)c2ccco2)C1c1cccc(Oc2ccccc2)c1 (stereo unspecified) [3-(furan-2-carbonyl)-4-hydroxy-1-(2-methoxyethyl)-2-(3-phenoxyphenyl)-2H-pyrrol-5-one]
4 | > 43.7 µM | C=CCOc1cccc(C2C(C(=O)c3ccco3)C(=O)C(=O)N2CCN2CCOCC2)c1 (stereo unspecified) [3-(furan-2-carbonyl)-4-hydroxy-1-(2-morpholin-4-ylethyl)-2-(3-prop-2-enoxyphenyl)-2H-pyrrol-5-one]
5 | > 43.7 µM | O=C1C(=O)N(CCc2ccccc2)C(c2cccnc2)C1C(=O)c1ccco1 (stereo unspecified) [3-(furan-2-carbonyl)-4-hydroxy-1-(2-phenylethyl)-2-pyridin-3-yl-2H-pyrrol-5-one]
6 | > 43.7 µM | CCCOc1ccc(C2C(C(=O)c3ccco3)C(=O)C(=O)N2CCCn2ccnc2)cc1 (stereo unspecified) [3-(furan-2-carbonyl)-4-hydroxy-1-(3-imidazol-1-ylpropyl)-2-(4-propoxyphenyl)-2H-pyrrol-5-one]
7 | 9.5 µM | COCCCN1C(=O)C(=O)C(C(=O)c2ccco2)C1c1ccccc1 (stereo unspecified) [3-(furan-2-carbonyl)-4-hydroxy-1-(3-methoxypropyl)-2-phenyl-2H-pyrrol-5-one]
8 | > 43.7 µM | Cc1cc(N2C(=O)C(=O)C(C(=O)c3ccco3)C2c2cccnc2)no1 (stereo unspecified) [3-(furan-2-carbonyl)-4-hydroxy-1-(5-methyl-1,2-oxazol-3-yl)-2-pyridin-3-yl-2H-pyrrol-5-one]
9 | 35.9 µM | O=C1C(=O)N(CC2CCCO2)C(c2cccnc2)C1C(=O)c1ccco1 (stereo unspecified) [3-(furan-2-carbonyl)-4-hydroxy-1-(oxolan-2-ylmethyl)-2-pyridin-3-yl-2H-pyrrol-5-one]
10 | 19.4 µM | COCc1cc(C2C(C(=O)c3ccco3)C(=O)C(=O)N2CCOCCO)ccc1O (stereo unspecified) [3-(furan-2-carbonyl)-4-hydroxy-1-[2-(2-hydroxyethoxy)ethyl]-2-[4-hydroxy-3-(methoxymethyl)phenyl]-2H-pyrrol-5-one]
11 | > 43.7 µM | COc1cc(C2C(C(=O)c3ccco3)C(=O)C(=O)N2CCc2ccccc2)ccc1O (stereo unspecified) [3-(furan-2-carbonyl)-4-hydroxy-2-(4-hydroxy-3-methoxyphenyl)-1-(2-phenylethyl)-2H-pyrrol-5-one]
12 | 6.4 µM | C=CCOc1ccc(C2C(C(=O)c3ccco3)C(=O)C(=O)N2Cc2cccnc2)cc1 (stereo unspecified) [3-(furan-2-carbonyl)-4-hydroxy-2-(4-prop-2-enoxyphenyl)-1-(pyridin-3-ylmethyl)-2H-pyrrol-5-one]
13 | > 43.7 µM | O=C1CCCC(=O)C1C(C#Cc1ccccc1)C1C(=O)CCCC1=O [3-hydroxy-2-[1-(2-hydroxy-6-keto-cyclohexen-1-yl)-3-phenyl-prop-2-ynyl]cyclohex-2-en-1-one]
14 | 28.1 µM | COC(=O)c1ccc(C2C(C(=O)c3ccc(OC)cc3)C(=O)C(=O)N2Cc2ccco2)cc1 (stereo unspecified) [4-[(3Z)-1-(2-furanylmethyl)-3-[hydroxy-(4-methoxyphenyl)methylidene]-4,5-dioxo-2-pyrrolidinyl]benzoic acid methyl ester]
15 | 13.6 µM | COC(=O)c1[nH]c(C)c(C(=O)C2C(=O)C(=O)N(CCN3CCOCC3)C2c2cccnc2)c1C (stereo unspecified) [4-[(E)-hydroxy-[1-[2-(4-morpholinyl)ethyl]-4,5-dioxo-2-(3-pyridinyl)-3-pyrrolidinylidene]methyl]-3,5-dimethyl-1H-pyrrole-2-carboxylic acid methyl ester]
16 | 8.2 µM | Cc1ccsc1C1C2C(=O)CC(C)(C)CC2=Nc2ncnn21 (stereo unspecified) [6,6-dimethyl-9-(3-methyl-2-thienyl)-1,5,7,9-tetrahydro-[1,2,4]triazolo[5,1-b]quinazolin-8-one]
17 | 21.3 µM | COc1cc(-n2nc(C)c3c2OC(=N)C(C#N)C3c2ccccc2)c(Cl)c(Br)c1O (stereo unspecified) [6-amino-1-(3-bromo-2-chloro-4-hydroxy-5-methoxyphenyl)-3-methyl-4-phenyl-1,4-dihydropyrano[2,3-c]pyrazole-5-carbonitrile]
18 | > 43.7 µM | CSCCC1c2c(-c3cccs3)n[nH]c2OC(=N)C1C#N (stereo unspecified) [6-azanyl-4-(2-methylsulfanylethyl)-3-thiophen-2-yl-2,4-dihydropyrano[2,3-c]pyrazole-5-carbonitrile]

Row | Ki | SMILES
19 | 31.4 µM | Cc1ccc(C2c3c([nH]c(=S)[nH]c3=O)N=C3CC(C)(C)CC(=O)C32)cc1 (stereo unspecified) [8,8-dimethyl-5-(4-methylphenyl)-2-sulfanylidene-5,7,9,10-tetrahydro-1H-pyrimido[4,5-b]quinoline-4,6-dione]
20 | > 43.7 µM | C=CCN1C(=O)C2(c3ccccc31)C(C(=O)c1ccc3c(c1)OCCO3)C(=O)C(=O)N2CCCOC (stereo unspecified) [(4'E)-1-allyl-4'-[2,3-dihydro-1,4-benzodioxin-6-yl(hydroxy)methylene]-1'-(3-methoxypropyl)spiro[indoline-3,5'-pyrrolidine]-2,2',3'-trione]
21 | 37.6 µM | COc1cc(C2C(C(=O)c3ccc4c(c3)CC(C)O4)C(=O)C(=O)N2CCCn2ccnc2)ccc1O (stereo unspecified) [(4E)-1-(3-imidazol-1-ylpropyl)-5-(3-methoxy-4-oxidanyl-phenyl)-4-[(2-methyl-2,3-dihydro-1-benzofuran-5-yl)-oxidanyl-methylidene]pyrrolidine-2,3-dione]
22 | > 43.7 µM | COCCCN1C(=O)C(=O)C(C(=O)c2ccc3c(c2)CC(C)O3)C1c1cccnc1 (stereo unspecified) [(4E)-1-(3-methoxypropyl)-4-[(2-methyl-2,3-dihydro-1-benzofuran-5-yl)-oxidanyl-methylidene]-5-pyridin-3-yl-pyrrolidine-2,3-dione]
23 | > 43.7 µM | Cc1ccc(C)c(C(=O)C2C(=O)C(=O)N(CCCn3ccnc3)C2c2ccncc2)c1 (stereo unspecified) [(4E)-4-[(2,5-dimethylphenyl)-hydroxy-methylene]-1-(3-imidazol-1-ylpropyl)-5-(4-pyridyl)pyrrolidine-2,3-quinone]
24 | > 43.7 µM | Cc1nc2c(C)cccn2c1C(=O)C1C(=O)C(=O)N(CCN2CCOCC2)C1c1cccs1 (stereo unspecified) [(4E)-4-[(2,8-dimethyl-3-imidazo[1,2-a]pyridinyl)-hydroxymethylidene]-1-[2-(4-morpholinyl)ethyl]-5-thiophen-2-ylpyrrolidine-2,3-dione]
25 | > 43.7 µM | COc1cccc(C2C(C(=O)c3ccc(OC)c(OC)c3)C(=O)C(=O)N2c2cc(C)on2)c1 (stereo unspecified) [(4E)-4-[(3,4-dimethoxyphenyl)-hydroxy-methylene]-5-(3-methoxyphenyl)-1-(5-methylisoxazol-3-yl)pyrrolidine-2,3-quinone]
26 | > 43.7 µM | COCCCN1C(=O)C(=O)C(C(=O)c2ccc(OC)cc2C)C1c1cccnc1 (stereo unspecified) [(4E)-4-[(4-methoxy-2-methyl-phenyl)-oxidanyl-methylidene]-1-(3-methoxypropyl)-5-pyridin-3-yl-pyrrolidine-2,3-dione]
27 | 19.4 µM | COCCCN1C(=O)C(=O)C(C(=O)c2ccccc2)C1c1ccc2c(c1)OCO2 (stereo unspecified) [(4E)-5-(1,3-benzodioxol-5-yl)-1-(3-methoxypropyl)-4-[oxidanyl(phenyl)methylidene]pyrrolidine-2,3-dione]
28 | > 43.7 µM | COc1ccc(C(=O)C2C(=O)C(=O)N(Cc3ccco3)C2c2ccc(OC)cc2OC)cc1 (stereo unspecified) [(4E)-5-(2,4-dimethoxyphenyl)-1-(2-furanylmethyl)-4-[hydroxy-(4-methoxyphenyl)methylidene]pyrrolidine-2,3-dione]
29 | > 43.7 µM | CC1Cc2cc(C(=O)C3C(=O)C(=O)N(CCN4CCOCC4)C3c3ccccc3F)ccc2O1 (stereo unspecified) [(4E)-5-(2-fluorophenyl)-4-[(2-methyl-2,3-dihydro-1-benzofuran-5-yl)-oxidanyl-methylidene]-1-(2-morpholin-4-ylethyl)pyrrolidine-2,3-dione]
30 | > 43.7 µM | Cc1ccc(C(=O)C2C(=O)C(=O)N(c3cc(C)on3)C2c2cccc(Br)c2)cc1 (stereo unspecified) [(4E)-5-(3-bromophenyl)-1-(5-methyl-1,2-oxazol-3-yl)-4-[(4-methylphenyl)-oxidanyl-methylidene]pyrrolidine-2,3-dione]
31 | > 43.7 µM | Cc1cc(N2C(=O)C(=O)C(C(=O)c3ccc(F)cc3)C2c2cccc(Br)c2)no1 (stereo unspecified) [(4E)-5-(3-bromophenyl)-4-[(4-fluorophenyl)-hydroxy-methylene]-1-(5-methylisoxazol-3-yl)pyrrolidine-2,3-quinone]
32 | > 43.7 µM | Cc1ccc(C(=O)C2C(=O)C(=O)N(CC(C)O)C2c2ccc(N(C)C)cc2)cc1 (stereo unspecified) [(4E)-5-[4-(dimethylamino)phenyl]-1-(2-hydroxypropyl)-4-[hydroxy(p-tolyl)methylene]pyrrolidine-2,3-quinone]
33 | > 43.7 µM | CCOc1cccc(C(=O)C2C(=O)C(=O)N(Cc3ccco3)C2c2ccncc2)c1 (stereo unspecified) [(4Z)-1-(2-furfuryl)-4-[hydroxy(m-phenetyl)methylene]-5-(4-pyridyl)pyrrolidine-2,3-quinone]
34 | 12.9 µM | COc1ccccc1C1C(C(=O)c2ccccc2)C(=O)C(=O)N1CCO (stereo unspecified) [(4Z)-1-(2-hydroxyethyl)-4-[hydroxy(phenyl)methylene]-5-(2-methoxyphenyl)pyrrolidine-2,3-quinone]
35 | 37.8 µM | CCOc1ccc(C(=O)C2C(=O)C(=O)N(c3nc(C)c(C)s3)C2c2ccco2)cc1 (stereo unspecified) [(4Z)-1-(4,5-dimethyl-1,3-thiazol-2-yl)-4-[(4-ethoxyphenyl)-hydroxymethylidene]-5-(furan-2-yl)pyrrolidine-2,3-dione]

Row | SMILES | Ki
36 | CC1=C(C(=O)OC(C)C)[C@]2(C(=O)N(CC(N)=O)c3ccccc32)C(C#N)C(=N)O1 (stereo partly drawn) [(3R)-6'-amino-1-(2-amino-2-keto-ethyl)-5'-cyano-2-keto-2'-methyl-spiro[indoline-3,4'-pyran]-3'-carboxylic acid isopropyl ester] | > 43.7 µM
